From patent US8445510B2, “Fused bicyclic kinase inhibitors” (OSI Pharmaceuticals, LLC, priority 2011, dated 2013)

Tests used:
Assay type in all cases: cell-based
MKN45 cells = assay: MKN45 cell proliferation assay (CellTiter-Glo); conditions: Homo sapiens, MKN-45, 72 h; MKN45 cell line; 3 days incubation; at least duplicate experiments; read-out: Prolif. IC50
Method: The effect of inhibitors on the proliferation of MKN45 cells was determined using the following protocol. MKN45 cells were plated in Corning 3917 96-well white tissue culture treated plates in growth medium (RPMI, 10% FCS) at a density of 5000 cells/well in a total volume of 135 μL and incubated at 37° C., 5% CO2, 95% humidity overnight. The following day, one-tenth volume of a 10× concentration of compounds was added to the wells in an 8-point dilution series. The dilution series was composed of an initial 1:5 dilution of a 10 mM stock of compound in DMSO, followed by serial 1:4 dilutions in DMSO, then a 1:20 dilution in growth medium prior to the 1:10 dilution into the cell plate. […] The typical dilution range is 10 μM to 0.6 nM. Once the compound was added to the cells, plates were incubated for 3 days at 37° C., 5% CO2 at 95% humidity. On the third day, after allowing all cells and reagents to come to room temperature, 25 μL of CellTiter-Glo reagent (Promega #G7573) was added to the wells. Plates were shaken on a platform for 10 minutes prior to reading luminescence for 0.1 seconds. The signal of the control wells was taken as 100% growth and growth inhibition was expressed as percent of control. IC50 values were determined from the percent of control data using a standard four-parameter model.
(§1) The IC50 values of exemplary compounds of the present invention determined in a cell proliferation assay using the MKN45 cell line according to the procedures described herein in at least duplicate experiments are abbreviated as follows and are shown in Table 2: A, IC50≦0.05 μM; B, 0.05 μM<IC50≦0.2 μM; C, 0.2 μM<IC50≦1 μM; D, IC50>1 μM; ND, not determined. The Example # of Table 2 corresponds to the compound example number as illustrated in the Examples section.
Treatment of this cell line with a selective c-MET inhibitor led to induction of apoptosis and inhibition of proliferation, whereas non-MET-amplified cell lines were not affected [Smolen et al., Proc. Natl. Acad. Sci. USA, 103(7):2316-2321 (2006)]. This cell line is thus “driven” by c-MET, and antiproliferative effects correlate very well with the inhibition of c-MET phosphorylation so that the cell proliferation IC50, values can be used as surrogate for the c-MET cell mechanistic IC50, values. Under the assay conditions described herein, the IC50 values correlate nearly 1:1.

RON = molecular target: T1, RON (Homo sapiens, UniProt Q04912); assay: sfRON cell mechanistic assay (HeLa), phosphorylated RON ELISA; conditions: HeLa cells transfected with sfRON; inhibition of phosphorylated RON; four hours incubation; at least duplicate experiments; read-out: sfRON mech IC50
T1 sequence (Q04912 913-1400): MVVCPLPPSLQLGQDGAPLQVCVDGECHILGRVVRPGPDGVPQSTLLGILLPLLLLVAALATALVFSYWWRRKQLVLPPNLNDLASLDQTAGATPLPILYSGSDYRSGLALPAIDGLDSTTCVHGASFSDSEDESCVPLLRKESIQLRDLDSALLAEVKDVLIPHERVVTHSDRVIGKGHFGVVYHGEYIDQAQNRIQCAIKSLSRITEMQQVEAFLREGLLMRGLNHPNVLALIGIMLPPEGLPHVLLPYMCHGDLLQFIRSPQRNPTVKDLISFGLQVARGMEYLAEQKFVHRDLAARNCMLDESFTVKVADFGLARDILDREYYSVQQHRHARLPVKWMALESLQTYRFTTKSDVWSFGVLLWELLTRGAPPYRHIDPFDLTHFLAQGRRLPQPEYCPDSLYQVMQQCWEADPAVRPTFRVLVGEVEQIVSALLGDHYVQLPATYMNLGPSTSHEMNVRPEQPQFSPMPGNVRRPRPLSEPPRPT
Method: The cellular activity of the compounds of the present invention against RON may be determined by the following procedure. HeLa cells were plated in Falcon 3072 96-well plates in growth media (DMEM, 10% FBS, 1% L-glutamine) at a density of 10000 cells/well and incubated at 37° C., 5% CO2 overnight. The following day, cells were transfected with 0.2 μg sfRON-pcDNA plasmid DNA with 0.5 μL Lipofectamine-2000 per well in the presence of 50 μL OPTI-MEM, incubated at 37° C., 5% CO2 overnight. Costar 3915 96-well assay plates were coated with rabbit Anti-RON antibody at 2.0 μg/mL, sealed, and incubated overnight at 4° C. On the third day, coated plates were washed with PBS and blocked with 3% BSA. For the sfRON transfected cells, one-tenth volume of a 10× concentration of compounds was added to the wells in a 6-point dilution series. The dilution series was composed of an initial 1:5 dilution of a 10 mM DMSO stock solution of compound in DMSO, followed by a 1:10 dilution in growth media, for a final DMSO concentration on cells of 0.5%. Control wells were treated with 0.5% DMSO. The typical range of dilution was 10 μM to 3 nM. Once compound was added to the cells, plates were incubated for four hours at 37° C., 5% CO2. Plates were then washed in PBS, and lysed in triton-based lysis buffer. Lysates were transferred to the blocked capture plates. The phosphorylated RON levels were measured by incubating with a Goat polyclonal antibody against phosphorylated RON ([pYpY1238/1239]) followed by an anti-Goat antibody conjugated to HRP. Signal was measured on a Wallac Victor plate reader with luminance. The DMSO signal of the control wells was defined as 100% and the percent of inhibition of phosphorylated RON was expressed as percent of control. IC50 values were determined from the percent of control data using a standard four-parameter model.
The IC50 values of exemplary compounds of the present invention determined in a sfRON cell mechanistic assay using the HeLa cell line according to the procedures described herein in at least duplicate experiments are abbreviated as follows and are shown in Table 3: A, IC50≦0.2 μM; B, 0.2 μM<IC50≦1.0 μM; C, IC50>1 μM; ND, not determined. The Example # of Table 3 corresponds to the compound example number as illustrated in the Examples section.

Karpas-299 cells = assay: Karpas-299 cell proliferation assay (CellTiter-Glo); conditions: Homo sapiens, 72 h; Karpas-299 cell line (NPM-ALK); 3 days incubation; at least duplicate experiments; read-out: Prolif. IC50
Method: The effect of inhibitors on the proliferation of Karpas-299 cells (DSMZ no. ACC 31) was determined using the following protocol. Karpas-299 cells were plated in 96-well white tissue culture treated plates (Corning 3917) in growth medium (RPMI, 10% FCS) at a density of 5000 cells/well in a total volume of 135 μL and incubated at 37° C., 5% CO2, 95% humidity overnight. The following day, one-tenth volume of a 10× concentration of compounds was added to the wells in an 8-point dilution series. Compounds were serially diluted (1:4) in DMSO from a 10 mM stock solution prior to dilution in growth media to the 10× working concentrations (5% DMSO). Final concentration of DMSO in compound-treated wells was 0.5%. Control wells containing growth media or growth media/0.5% DMSO were included in all test plates. […] Once the compounds were added to the cells, plates were incubated for 3 days at 37° C., 5% CO2 at 95% humidity. After 72 hours, all cells and reagents were equilibrated to room temperature and 15 μL of CellTiter-Glo reagent (Promega # G7573) was added to each well. Plates were shaken on a platform for 10 minutes at room temperature prior to reading luminescence. The value of the signal of the control wells was set as 100% growth and growth inhibition was expressed as percent of control. IC50 values were determined from the percent of control data using a standard four-parameter curve fit equation.
as §1, with “the Karpas-299” for “the MKN45”, “Table 5:” for “Table 2:”, “Table 5” for “Table 2”
The Karpas-299 cell line has a t(2; 5) chromosomal translocation and expresses the NPM-ALK fusion protein, resulting in constitutively active ALK. […] Ther. 6(12):3314-22 (2007)]. With this “ALK-driven” cell line, the cell proliferation IC50 values can thus be used as surrogate for the p-ALK cell mechanistic IC50 values.

| SMILES | IC50 (MKN45 cells) | IC50 (RON) | IC50 (Karpas-299 cells) |
| --- | --- | --- | --- |
| Cc1c(-c2cnc3[nH]cc([C@H](C)c4c(OC(F)F)ccc(F)c4Cl)c3c2)cnn1[C@H]1CC[C@@H](N2CCC[C@H]2C(=O)O)CC1 [Example 92, 1-{cis-4-[4-(3-{(1S)-1-[2-Chloro-6-(difluoromethoxy)-3-fluorophenyl]ethyl}-1H-pyrrolo[2,3-b]pyridin-5-yl)-5-methyl-1H-pyrazol-1-yl]cyclohexyl}-L-proline] | 0.2 to 1 µM | > 1 µM | 0.2 to 1 µM |
| Cc1c(-c2cnc3[nH]cc([C@H](C)c4c(OC(F)F)ccc(F)c4Cl)c3c2)cnn1[C@H]1CC[C@@H](N(C)CC(=O)O)CC1 [Example 90, N-{cis-4-[4-(3-{(1S)-1-[2-Chloro-6-(difluoromethoxy)-3-fluorophenyl]ethyl}-1H-pyrrolo[2,3-b]pyridin-5-yl)-5-methyl-1H-pyrazol-1-yl]cyclohexyl}-N-methylglycine] | 0.05 to 0.2 µM | > 1 µM | 0.05 to 0.2 µM |
| Cc1c(-c2cnc3[nH]cc(C(C)c4c(Cl)ccc(F)c4O)c3c2)cnn1[C@H]1CC[C@H](O)CC1 (stereo partly drawn) [Example 115, 3-Chloro-6-fluoro-2-(1-{5-[1-(trans-4-hydroxycyclohexyl)-5-methyl-1H-pyrazol-4-yl]-1H-pyrrolo[2,3-b]pyridin-3-yl}ethyl)-phenol] | 0.05 to 0.2 µM | > 1 µM | ≤ 0.05 µM |
| Cc1c(-c2cnc3[nH]cc([C@H](C)c4c(OC(F)F)ccc(F)c4Cl)c3c2)cnn1[C@H]1CC[C@H](N2CCC[C@H]2C(=O)O)CC1 [Example 91, 1-{trans-4-[4-(3-{(1S)-1-[2-Chloro-6-(difluoromethoxy)-3-fluorophenyl]ethyl}-1H-pyrrolo[2,3-b]pyridin-5-yl)-5-methyl-1H-pyrazol-1-yl]cyclohexyl}-L-proline] | 0.05 to 0.2 µM | > 1 µM | 0.05 to 0.2 µM |
| COc1c(F)ccc(Cl)c1C(C)c1c[nH]c2ncc(-c3cnn([C@H]4CC[C@H](O)CC4)c3C)cc12 (stereo partly drawn) [Example 112, trans-4-(4-{3-[1-(6-Chloro-3-fluoro-2-methoxyphenyl)ethyl]-1H-pyrrolo[2,3-b]pyridin-5-yl}-5-methyl-1H-pyrazol-1-yl)cyclohexanol] | > 1 µM | > 1 µM | 0.2 to 1 µM |

Further lines, results first:

| IC50 (MKN45 cells) | IC50 (RON) | IC50 (Karpas-299 cells) | SMILES |
| --- | --- | --- | --- |
| ≤ 0.05 µM | ≤ 0.2 µM | ≤ 0.05 µM | Cc1c(-c2cnc3[nH]cc([C@H](C)c4c(OC(F)F)ccc(F)c4Cl)c3c2)cnn1C[C@@H](O)CO [Example 87, (2R)-3-[4-(3-{(1S)-1-[2-Chloro-6-(difluoromethoxy)-3-fluorophenyl]ethyl}-1H-pyrrolo[2,3-b]pyridin-5-yl)-5-methyl-1H-pyrazol-1-yl]propane-1,2-diol] |
| ≤ 0.05 µM | > 1 µM | 0.05 to 0.2 µM | Cc1c(-c2cnc3[nH]cc([C@H](C)c4c(OC(F)F)ccc(F)c4Cl)c3c2)cnn1[C@H]1CC[C@H](N(C)CC(=O)O)CC1 [Example 89, N-{trans-4-[4-(3-{(1S)-1-[2-Chloro-6-(difluoromethoxy)-3-fluorophenyl]ethyl}-1H-pyrrolo[2,3-b]pyridin-5-yl)-5-methyl-1H-pyrazol-1-yl]cyclohexyl}-N-methylglycine] |
| 0.05 to 0.2 µM | 0.2 to 1 µM | 0.2 to 1 µM | N#CC(c1c(Cl)ccc(F)c1Cl)c1c[nH]c2ncc(-c3cnn([C@H]4CC[C@H](O)CC4)c3F)cc12 (stereo partly drawn) [Example 109] |
| ≤ 0.05 µM | > 1 µM | 0.05 to 0.2 µM | COc1ccc(F)c(Cl)c1[C@@H](C)c1c[nH]c2ncc(-c3cnn([C@H]4CC[C@@H](N5CCN(C(C)=O)CC5)CC4)c3C)cc12 [Example 57, 1-{4-[cis-4-(4-{3-[(1S)-1-(2-Chloro-3-fluoro-6-methoxyphenyl)ethyl]-1H-pyrrolo[2,3-b]pyridin-5-yl}-5-methyl-1H-pyrazol-1-yl)cyclohexyl]piperazin-1-yl}ethanone] |
| ≤ 0.05 µM | 0.2 to 1 µM | ≤ 0.05 µM | Cc1c(-c2cnc3[nH]cc([C@H](C)c4c(OC(F)F)ccc(F)c4Cl)c3c2)cnn1C1CCC(=O)CC1 [Example 88, 4-[4-(3-{(1S)-1-[2-Chloro-6-(difluoromethoxy)-3-fluorophenyl]ethyl}-1H-pyrrolo[2,3-b]pyridin-5-yl)-5-methyl-1H-pyrazol-1-yl]cyclohexanone] |
